Ki and IC50 data for twelve compounds are collected here from patent US11130769B2 (Prelude Therapeutics Incorporated, priority 2018, dated 2021).

Assay [1] addresses MCL-1 (Homo sapiens (Human), UniProt Q07820). Briefly: Cell free Mcl-1:Bim affinity assay (fluorescence polarization competition). The format is binding. Conditions: 15 nM MCL-1, 5 nM FITC-Bim, 1 hour at room temperature; class symbols; read-out: BIM_Ki. The method, boiled down: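 Fluorescence polarization competition: 10-point 3-fold compound dilutions displaced 5 nM FITC-Bim from 15 nM MCL-1 over 1 h at room temperature. Ki was derived from the fitted IC50 using the Nikolovska-Coleska equation, with percent inhibition normalized to DMSO and positive controls.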
A general note: Polarisation of emitted light reports the rotation of a fluorescent probe.

Assay [2] concerns H929 cells. Briefly: Cell viability assay (H929 10 FBS). The format is cell-based. Conditions: Homo sapiens, NCI-H929, 24 hours, read-out: H929_10FBS IC50. The method, boiled down:
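ATP-based luminescence (CellTiter-Glo or ATPlite 1 Step, 30-60 min at RT) gauged viability of H929 myeloma cells after 24 h compound treatment at 37 °C. Cells plated at 4000 per well in 10% FBS RPMI 1640 supplemented with pyruvate, HEPES and glucose.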

What is called IC50 is the concentration needed to halve the response being measured.

Where only a bound is given, the exact number is not on record here.

MCL-1, sequence (Q07820 whole entry): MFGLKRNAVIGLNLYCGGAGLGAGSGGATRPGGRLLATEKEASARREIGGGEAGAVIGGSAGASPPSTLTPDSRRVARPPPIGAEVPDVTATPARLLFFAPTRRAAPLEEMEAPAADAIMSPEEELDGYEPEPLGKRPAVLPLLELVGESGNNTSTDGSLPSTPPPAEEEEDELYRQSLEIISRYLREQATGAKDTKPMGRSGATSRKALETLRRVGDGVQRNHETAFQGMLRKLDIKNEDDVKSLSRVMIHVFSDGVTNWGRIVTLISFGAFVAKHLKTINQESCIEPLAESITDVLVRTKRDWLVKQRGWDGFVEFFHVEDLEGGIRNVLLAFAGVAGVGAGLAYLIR

Take `CC1(C)OC/C=C/[C@H](OC(=O)NCCN2CCC(O)CC2)[C@@H]2CC[C@H]2CN2C[C@@]3(CCCc4cc(Cl)ccc43)COc3ccc(cc32)S(=O)(=O)NC1=O` [Example 150, [(3R,6R,7S,8E,22S)-6′-Chloro-12,12-dimethyl-13,15,15-trioxo-spiro[11,20-dioxa-15-thia-1,14-diazatetracyclo[14.7.2.03,6.019,24]pentacosa-8,16,18,24-tetraene-22,1′-tetralin]-7-yl] N-[2-(4-hydroxy-1-piperidyl)ethyl]carbamate]: the Ki in assay [1] is below 1 nM. In addition, the IC50 in assay [2] is below 1000 nM.

For `CC(C)NC(=O)O[C@H]1/C=C/COC(C)(C)C(=O)NS(=O)(=O)c2ccc3c(c2)N(C[C@@H]2CC[C@H]21)C[C@@]1(CCCc2cc(Cl)ccc21)CO3` [Example 181, [(3R,6R,7S,8E,22S)-6′-Chloro-12,12-dimethyl-13,15,15-trioxo-spiro[11,20-dioxa-15-thia-1,14-diazatetracyclo[14.7.2.03,6.019,24]pentacosa-8,16,18,24-tetraene-22,1′-tetralin]-7-yl] N-isopropylcarbamate], the Ki in assay [1] is below 1 nM. Further, in assay [2], the IC50 is below 500 nM.

Consider `CN(C(=O)O[C@H]1/C=C/CN(C)C2(CCC2)C(=O)NS(=O)(=O)c2ccc3c(c2)N(C[C@@H]2CC[C@H]21)C[C@@]1(CCCc2cc(Cl)ccc21)CO3)[C@H]1CCOC1` [Example 241, [(3R,6R,7S,8E,22S)-6′-Chloro-11-methyl-12,12-(1,3-propylene)-13,15,15-trioxo-spiro[20-oxa-15-thia-1,11,14-triazatetracyclo[14.7.2.03,6.019,24]pentacosa-8,16,18,24-tetraene-22,1′-tetralin]-7-yl] N-methyl-N-[(3S)-tetrahydrofuran-3-yl]carbamate], for which the Ki in assay [1] is below 1 nM. Moreover, in assay [2], the IC50 is below 500 nM.

Take `CC1(C)OC/C=C/[C@H](OCCN2CC(F)(F)C2)[C@@H]2CC[C@H]2CN2C[C@@]3(CCCc4cc(Cl)ccc43)COc3ccc(cc32)S(=O)(=O)NC1=O` [Example 258, (3R,6R,7S,8E,22S)-6′-Chloro-7-[2-(3,3-difluoroazetidin-1-yl)ethoxy]-12,12-dimethyl-15,15-dioxo-spiro[11,20-dioxa-15-thia-1,14-diazatetracyclo[14.7.2.03,6.019,24]pentacosa-8,16,18,24-tetraene-22,1′-tetralin]-13-one]: the Ki in assay [1] was below 1 nM. Further, the IC50 in assay [2] was below 500 nM.

Turning to `CN(C)C(=O)O[C@@H]1/C=C/CN(C)C(C)(C)C(=O)NS(=O)(=O)c2ccc3c(c2)N(C[C@@H]2CC[C@H]21)C[C@@]1(CCCc2cc(Cl)ccc21)CO3` [Example 200, [(3R,6R,7R,8E,22S)-6′-Chloro-11,12,12-trimethyl-13,15,15-trioxo-spiro[20-oxa-15-thia-1,11,14-triazatetracyclo[14.7.2.03,6.019,24]pentacosa-8,16,18,24-tetraene-22,1′-tetralin]-7-yl] N,N-dimethylcarbamate], the Ki in assay [1] lay within 1 to 100 nM. The IC50 in assay [2] was below 500 nM.

`COCCOC[C@@H]1CC/C=C/[C@@H](OC)[C@@H]2CC[C@H]2CN2C[C@@]3(CCCc4cc(Cl)ccc43)COc3ccc(cc32)S(=O)(=O)NC1=O` [Example 97, (3R,6R,7R,8E,12S,22S)-6′-Chloro-12-((2-methoxyethoxy)methyl)-7-methoxy-15,15-dioxo-spiro[20-oxa-15-thia-1,14-diazatetracyclo[14.7.2.03,6.019,24]pentacosa-8,16,18,24-tetraene-22,1′-tetralin]-13-one]: in assay [1], the Ki was below 1 nM. The IC50 in assay [2] is above 1000 nM.

`COC1CN(C(=O)O[C@H]2/C=C/COC(C)(C)C(=O)NS(=O)(=O)c3ccc4c(c3)N(C[C@@H]3CC[C@H]32)C[C@@]2(CCCc3cc(Cl)ccc32)CO4)C1` [Example 56, [(3R,6R,7S,8E,22S)-6′-Chloro-12,12-dimethyl-13,15,15-trioxo-spiro[11,20-dioxa-15-thia-1,14-diazatetracyclo[14.7.2.03,6.019,24]pentacosa-8,16,18,24-tetraene-22,1′-tetralin]-7-yl] 3-methoxyazetidine-1-carboxylate]: the Ki in assay [1] was below 1 nM. For the same compound, in assay [2], the IC50 was below 500 nM.

On to `CC1(C)OC/C=C/[C@H](OC(=O)N[C@@H]2CCOC2)[C@@H]2CC[C@H]2CN2C[C@@]3(CCOc4cc(Cl)ccc43)COc3ccc(cc32)S(=O)(=O)NC1=O` [Example 302, [(3R,6R,7S,8E,22S)-7′-Chloro-12,12-dimethyl-13,15,15-trioxo-spiro[11,20-dioxa-15-dioxa-15-thia-1,14-diazatetracyclo[14.7.2.03,6.019,24]pentacosa-8,16,18,24-tetraene-22,4′-chromane]-7-yl] N-[(3R)-tetrahydrofuran-3-yl]carbamate], for which the Ki in assay [1] is below 1 nM. The IC50 in assay [2] is below 500 nM.

As for `CN([C@H]1/C=C/COC(C)(C)C(=O)NS(=O)(=O)c2ccc3c(c2)N(C[C@@H]2CC[C@H]21)C[C@@]1(CCCc2cc(Cl)ccc21)CO3)S(C)(=O)=O` [Example 256, N-Methyl-N-[(3R,6R,7S,8E,22S)-6′-chloro-12,12-dimethyl-13,15,15-trioxo-spiro[11,20-dioxa-15-thia-1,14-diazatetracyclo[14.7.2.03,6.019,24]pentacosa-8,16(25),17,19(24)-tetraene-22,1′-tetralin]-7-yl]methanesulfonamide], in assay [1], the Ki lay within 1 to 100 nM. Also, the IC50 in assay [2] was above 1000 nM.

`O=C1Cc2cc(OCCN3CCOCC3)cc(c2)OC[C@@H]2CC[C@H]2CN2C[C@@]3(CCCc4cc(Cl)ccc43)COc3ccc(cc32)S(=O)(=O)N1` [Example 105, (3R,6R,24S)-6′-Chloro-11-(2-morpholinoethoxy)-17,17-dioxo-spiro[8,22-dioxa-17-thia-1,16-diazapentacyclo[16.7.2.19,13.03,6.021,26]octacosa-9(28),10,12,18(27),19,21(26)-hexaene-24,1′-tetralin]-15-one]: the Ki in assay [1] is 1 to 100 nM. Also, the IC50 in assay [2] is above 1000 nM.

Turning to `[2H]C1([2H])/C=C/[C@H](OC(=O)N(C)C)[C@@H]2CC[C@H]2CN2C[C@@]3(CCCc4cc(Cl)ccc43)COc3ccc(cc32)S(=O)(=O)NC(=O)C(C)(C)O1` [Example 312, [(3R,6R,7S,8E,22S)-6′-Chloro-10,10-dideuterio-12,12-dimethyl-13,15,15-trioxo-spiro[11,20-dioxa-15-thia-1,14-diazatetracyclo[14.7.2.03,6.019,24]pentacosa-8,16,18,24-tetraene-22,1′-tetralin]-7-yl] N,N-dimethylcarbamate], the Ki in assay [1] was below 1 nM. Moreover, the IC50 in assay [2] is below 500 nM.

For `CO[C@@H]1/C=C/CO[C@@H](C)C(=O)NS(=O)(=O)c2ccc3c(c2)N(C[C@@H]2CC[C@H]21)C[C@@]1(CCCc2cc(Cl)ccc21)CO3` [Example 114, (3R,6R,7R,8E,12S,22S)-6′-Chloro-7-methoxy-12-methyl-15,15-dioxo-spiro[11,20-dioxa-15-thia-1,14-diazatetracyclo[14.7.2.03,6.019,24]pentacosa-8,16,18,24-tetraene-22,1′-tetralin]-13-one], the Ki in assay [1] was below 1 nM. The IC50 in assay [2] was below 1000 nM.
